From ChEMBL document CHEMBL1124355, “Synthesis and biological activity of some partially modified retro-inverso analogues of cholecystokinin” (J Med Chem, 1989)
Non-standard residues stand in square brackets, D forms with d. Residues, ends and D or L forms follow the SMILES beside them. *: point of attachment. sY = N[C@@H](Cc1ccc(OS(=O)(=O)O)cc1)C(=O)O; Nle = CCCC[C@H](N)C(=O)O; Boc = CC(C)(C)OC(=O)*

Columns and labels:
[1] = Ability of compound to Inhibit the binding of [125I]BH-CCK-8 to Cholecystokinin receptor in isolated guinea pig brain membranes
[2] = species: Rattus norvegicus; assay: Ability of compound to stimulate in vitro amylase release from rat pancreatic acini; type: functional
[3] = biological target: T1, Cholecystokinin receptor (Rattus norvegicus, UniProt P30551+P30553); assay: Ability of compound to Inhibit the binding of [125I]BH-CCK-8 to Cholecystokinin receptor in isolated rat pancreatic acini; type: protein assay
T1 sequence (P30551 whole entry): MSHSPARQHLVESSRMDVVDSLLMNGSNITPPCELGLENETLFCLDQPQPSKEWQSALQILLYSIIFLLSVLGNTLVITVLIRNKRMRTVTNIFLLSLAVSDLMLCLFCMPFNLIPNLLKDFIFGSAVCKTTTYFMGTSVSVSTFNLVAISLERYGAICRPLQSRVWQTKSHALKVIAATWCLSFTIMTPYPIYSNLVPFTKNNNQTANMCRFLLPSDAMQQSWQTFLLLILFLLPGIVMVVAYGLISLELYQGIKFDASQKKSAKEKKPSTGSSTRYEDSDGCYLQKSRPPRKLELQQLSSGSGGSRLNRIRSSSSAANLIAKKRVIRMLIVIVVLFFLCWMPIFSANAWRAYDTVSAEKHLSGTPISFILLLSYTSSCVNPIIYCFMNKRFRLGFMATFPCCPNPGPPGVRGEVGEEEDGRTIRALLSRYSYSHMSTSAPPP
T1 sequence (P30553 whole entry): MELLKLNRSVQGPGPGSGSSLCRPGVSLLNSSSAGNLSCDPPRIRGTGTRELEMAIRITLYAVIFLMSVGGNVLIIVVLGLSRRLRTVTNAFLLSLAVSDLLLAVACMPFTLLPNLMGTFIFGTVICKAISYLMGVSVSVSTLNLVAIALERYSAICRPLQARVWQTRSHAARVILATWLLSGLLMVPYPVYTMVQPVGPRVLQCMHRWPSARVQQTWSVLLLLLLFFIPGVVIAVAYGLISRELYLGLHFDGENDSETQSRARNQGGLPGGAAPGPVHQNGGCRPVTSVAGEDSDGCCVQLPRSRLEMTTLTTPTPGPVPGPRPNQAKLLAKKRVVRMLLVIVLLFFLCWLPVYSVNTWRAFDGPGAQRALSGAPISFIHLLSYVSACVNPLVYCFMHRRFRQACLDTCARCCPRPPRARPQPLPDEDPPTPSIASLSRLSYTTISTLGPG

Structure (SMILES) | IC50 [1] | EC50 [2] | IC50 [3]
CCCC[C@H](NC(=O)[C@H](Cc1ccc(OS(=O)(=O)O)cc1)NC(=O)OC(C)(C)C)C(=O)NCNC(=O)[C@H](Cc1c[nH]c2ccccc12)NC(=O)[C@H](CCCC)NC(=O)[C@H](CC(=O)O)NC(=O)[C@@H](Cc1ccccc1)C(N)=O | 1000 nM | 30 nM | 20 nM
CCCC[C@H](NC(=O)[C@H](Cc1ccc(OS(=O)(=O)O)cc1)NC(=O)C(CC(=O)O)NC(=O)OC(C)(C)C)C(=O)NCC(=O)N[C@H](Cc1c[nH]c2ccccc12)C(=O)N[C@@H](CCCC)C(=O)N[C@H](CC(=O)O)NC(=O)CCc1ccccc1 (some centres not stated) | 40 nM | 130 nM | 100 nM
CCCC[C@H](NC(=O)[C@H](Cc1ccc(OS(=O)(=O)O)cc1)NC(=O)OC(C)(C)C)C(=O)NCC(=O)N[C@H](Cc1c[nH]c2ccccc12)C(=O)N[C@@H](CCCC)C(=O)N[C@@H](CC(=O)O)C(=O)N[C@@H](Cc1ccccc1)NC=O | 100 nM | 1700 nM | 4000 nM
CCCC[C@H](NC(=O)[C@H](Cc1ccc(OS(=O)(=O)O)cc1)NC(=O)C(CC(=O)O)NC(=O)OC(C)(C)C)C(=O)NCC(=O)N[C@H](Cc1c[nH]c2ccccc12)C(=O)N[C@@H](CCCC)C(=O)N[C@H](CC(=O)O)NC(=O)[C@@H](Cc1ccccc1)C(N)=O (some centres not stated) | 10 nM | 0.7 nM | 100 nM
CCCC[C@H](NC(=O)[C@H](Cc1ccc(OS(=O)(=O)O)cc1)NC(=O)OC(C)(C)C)C(=O)NCNC(=O)[C@H](Cc1c[nH]c2ccccc12)NC(=O)[C@H](CCCC)NC(=O)[C@H](CC(=O)O)NC(=O)CCc1ccccc1 | 100 nM | 17 nM | 40 nM
CCCC[C@H](NC(=O)[C@H](Cc1ccc(OS(=O)(=O)O)cc1)NC(=O)OC(C)(C)C)C(=O)NCC(=O)N[C@@H](Cc1c[nH]c2ccccc12)C(=O)N[C@@H](CCCC)C(=O)N[C@@H](CC(=O)O)C(=O)N[C@@H](Cc1ccccc1)NC=O | 30 nM | 30 nM | 500 nM
CCCC[C@@H](NC(=O)CC(=O)N[C@H](Cc1c[nH]c2ccccc12)C(=O)N[C@@H](CCCC)C(=O)N[C@H](CC(=O)O)C(=O)N[C@@H](Cc1ccccc1)C(N)=O)NC(=O)[C@H](Cc1ccc(OS(=O)(=O)O)cc1)NC(=O)C(CC(=O)O)NC(=O)OC(C)(C)C (some centres not stated) | 2 nM | 6 nM | 500 nM
CCCC[C@H](NC(=O)[C@H](Cc1ccc(OS(=O)(=O)O)cc1)NC(=O)OC(C)(C)C)C(=O)NCC(=O)N[C@@H](Cc1c[nH]c2ccccc12)C(=O)N[C@@H](CCCC)C(=O)N[C@@H](CC(=O)O)C(=O)N[C@@H](Cc1ccccc1)C(N)=O (Boc-[sY][Nle]GW[Nle]DF-NH2) |  | 0.05 nM | 
